The experiment concerns the target T1, acetylcholinesterase (Rattus norvegicus, UniProt P37136).
T1 construct: Using a rat brain homogenate as a source of acetylcholinesterase; from tissue; host or cells: rat brain homogenate
As to the kind of experiment: biochemical. The following applies: rat brain homogenate as source of acetylcholinesterase; acetylthiocholine substrate, DTNB, absorbance at 412 nm. As for the experimental part:
Using a rat brain homogenate as a source of acetylcholinesterase, the esterase activity was determined in accordance with the method of Ellman et al^1).
^1); Ellman. G. L., Courtney, K. D., Andres, V. and Featherstone, R. M., (1961), Biochem. Pharmacol., 7, 88-95.

SMILES strings stand for the structures.

T1 sequence (P37136 32-614): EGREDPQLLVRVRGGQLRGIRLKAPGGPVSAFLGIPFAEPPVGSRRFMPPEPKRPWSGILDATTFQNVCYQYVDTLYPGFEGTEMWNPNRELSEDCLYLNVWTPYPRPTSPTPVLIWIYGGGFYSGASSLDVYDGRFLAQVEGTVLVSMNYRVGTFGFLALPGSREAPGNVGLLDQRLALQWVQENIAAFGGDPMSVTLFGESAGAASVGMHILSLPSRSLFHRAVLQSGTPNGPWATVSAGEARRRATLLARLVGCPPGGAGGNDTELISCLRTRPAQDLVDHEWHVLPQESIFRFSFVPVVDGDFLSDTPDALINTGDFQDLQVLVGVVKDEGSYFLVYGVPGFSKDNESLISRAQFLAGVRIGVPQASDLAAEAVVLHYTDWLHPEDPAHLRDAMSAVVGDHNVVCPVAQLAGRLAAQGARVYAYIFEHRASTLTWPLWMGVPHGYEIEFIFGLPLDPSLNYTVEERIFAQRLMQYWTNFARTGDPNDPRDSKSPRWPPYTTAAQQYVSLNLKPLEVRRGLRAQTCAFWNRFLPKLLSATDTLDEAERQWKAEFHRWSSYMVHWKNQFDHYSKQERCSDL

In general, IC50 refers to the concentration needed to halve the response being measured. `COc1cc2c(cc1OC)C(=O)C(Cc1cc[n+](Cc3ccccc3)cc1)C2` (stereo not shown) [Example 1, 1-Benzyl-4-[(5.6-dimethoxy-1-indanone)-2-yl]methylpyridinium bromide] showed a concentration for half-maximal inhibition (IC50) of 3.8 nM.

The values above are taken from US6706741B2, “Acetylcholinesterase inhibitors containing 1-benzyl-pyridinium salts” (priority 2000, dated 2004).
